Results: US11147763B2, “Vaginal ring with visual indication of use” (RESEARCH TRIANGLE INSTITUTE, priority 2015, dated 2021)

Legend:
[1] = Screen of pH-based color changing tracers in biocompatible-grade silicone material; assay type: physicochemical; conditions: biocompatible-grade silicone placed into an aqueous environment
Procedure: For the second approach, research efforts focused on developing systems for analyzing biological constituents that diffuse into the ring causing a pH change (FIG. 2B, ii). To accomplish this testing strategy, a variety of pH-based color changing formulations were evaluated in biocompatible-grade silicone material. […] This material screen also facilitated the abandonment of tracers with poor performance, such as highly hydrophilic molecular families with high expulsion tendencies.

[2] = Diffusion of indicator out of silicone (PDMS) vaginal ring into surrounding solution; assay type: physicochemical; conditions: aqueous conditions, over the course of one week (FIG. 3B)
Procedure: Two different approaches were tested to assess the usage of the vaginal ring (FIG. 2A and FIG. 2B). First, a system with signal change resultant of indicator diffusion (i) out of the ring was tested (FIG. 2A).
In these cases, silicone (polydimethyl siloxane, PDMS) was utilized in combination with rhodamine-B, fluorescein, and a rhodamine-B/Brilliant Blue combination. (FIG. 3A).

| Compound | leaching of tracer from the silicone material [1] | release of indicator from the silicone material [2] |
| --- | --- | --- |
| O=C1c2ccccc2C(=O)c2c1ccc(O)c2O [Alazarin] | readily leached from the silicone material |  |
| CN(C)c1ccc(/N=N/c2ccccc2C(=O)O)cc1 [Methyl Red] | readily leached from the silicone material |  |
| CCN(CC)c1ccc2c(-c3ccccc3C(=O)O)c3ccc(=[N+](CC)CC)cc-3oc2c1.[Cl-] [rhodamine-B] |  | readily released from the silicone material |
